Data as given in ChEMBL document CHEMBL4507287, “Data for DCP probe MRL-650” (2021).

Experiments:
[1] = target: Serine/threonine-protein kinase ICK (Homo sapiens) (UniProt Q9UPZ9); conditions: Compound concentration 1000.0 nM
[2] = target: Muscarinic acetylcholine receptor M2 (Homo sapiens) (UniProt P08172); conditions: Compound concentration 10.0 uM
[3] = target: Dual specificity mitogen-activated protein kinase kinase 6 (Homo sapiens) (UniProt P52564); conditions: Compound concentration 1000.0 nM
Sequence of Dual specificity mitogen-activated protein kinase kinase 6 (Homo sapiens) (P52564 whole entry): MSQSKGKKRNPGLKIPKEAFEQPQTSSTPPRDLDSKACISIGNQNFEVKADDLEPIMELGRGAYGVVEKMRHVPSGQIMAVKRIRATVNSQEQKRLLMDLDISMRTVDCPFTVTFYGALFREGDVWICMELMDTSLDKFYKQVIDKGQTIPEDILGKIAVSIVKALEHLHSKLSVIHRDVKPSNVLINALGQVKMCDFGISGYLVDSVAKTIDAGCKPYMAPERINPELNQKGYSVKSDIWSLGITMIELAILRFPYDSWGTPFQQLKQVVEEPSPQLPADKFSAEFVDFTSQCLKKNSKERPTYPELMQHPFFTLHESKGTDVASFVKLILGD

[4] = target: Rho-associated protein kinase 1 (Homo sapiens) (UniProt Q13464); conditions: Compound concentration 1000.0 nM
[5] = target: Tyrosine-protein kinase Yes (Homo sapiens) (UniProt P07947); conditions: Compound concentration 1000.0 nM
[6] = target: Cyclin-dependent kinase-like 2 (Homo sapiens) (UniProt Q92772); conditions: Compound concentration 1000.0 nM
[7] = target: MAP/microtubule affinity-regulating kinase 4 (Homo sapiens) (UniProt Q96L34); conditions: Compound concentration 1000.0 nM
[8] = target: Calcium/calmodulin-dependent protein kinase type II subunit delta (Homo sapiens) (UniProt Q13557); conditions: Compound concentration 1000.0 nM
[9] = target: Muscarinic acetylcholine receptor M5 (Homo sapiens) (UniProt P08912); conditions: Compound concentration 10.0 uM
[10] = target: MAP kinase-activated protein kinase 5 (Homo sapiens) (UniProt Q8IW41); conditions: Compound concentration 1000.0 nM
[11] = target: Alpha-2B adrenergic receptor (Homo sapiens) (UniProt P18089); conditions: Compound concentration 10.0 uM
[12] = target: Cyclin-dependent kinase 19 (Homo sapiens) (UniProt Q9BWU1); conditions: Compound concentration 1000.0 nM
[13] = target: Bone morphogenetic protein receptor type-2 (Homo sapiens) (UniProt Q13873); conditions: Compound concentration 1000.0 nM
[14] = target: Serine/threonine-protein kinase Sgk3 (Homo sapiens) (UniProt Q96BR1); conditions: Compound concentration 1000.0 nM
[15] = target: Dual serine/threonine and tyrosine protein kinase (Homo sapiens) (UniProt Q6XUX3); conditions: Compound concentration 1000.0 nM
[16] = target: Serine/threonine-protein kinase PLK4 (Homo sapiens) (UniProt O00444); conditions: Compound concentration 1000.0 nM
[17] = target: Wee1-like protein kinase (Homo sapiens) (UniProt P30291); conditions: Compound concentration 1000.0 nM
[18] = target: cAMP-dependent protein kinase catalytic subunit PRKX (Homo sapiens) (UniProt P51817); conditions: Compound concentration 1000.0 nM
Sequence of cAMP-dependent protein kinase catalytic subunit PRKX (Homo sapiens) (P51817 whole entry): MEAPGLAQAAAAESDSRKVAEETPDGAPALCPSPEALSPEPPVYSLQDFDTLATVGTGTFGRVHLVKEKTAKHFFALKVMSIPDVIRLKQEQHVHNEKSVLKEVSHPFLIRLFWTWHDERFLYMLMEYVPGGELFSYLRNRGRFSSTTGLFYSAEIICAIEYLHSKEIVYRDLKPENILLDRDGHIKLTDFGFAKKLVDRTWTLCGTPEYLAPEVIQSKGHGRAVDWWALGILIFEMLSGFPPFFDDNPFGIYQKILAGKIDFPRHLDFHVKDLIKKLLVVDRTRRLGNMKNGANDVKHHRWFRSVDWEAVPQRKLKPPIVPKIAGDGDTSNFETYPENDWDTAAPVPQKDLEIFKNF

[19] = test system: Tyrosine-protein kinase ABL1 (Homo sapiens), P00519 [H396P]; conditions: Compound concentration 1000.0 nM
[20] = target: Serine/threonine-protein kinase 32A (Homo sapiens) (UniProt Q8WU08); conditions: Compound concentration 1000.0 nM
[21] = target: Serine/threonine-protein kinase WNK1 (Homo sapiens) (UniProt Q9H4A3); conditions: Compound concentration 1000.0 nM
[22] = target: Receptor-type tyrosine-protein kinase FLT3 (Homo sapiens) (UniProt P36888); conditions: Compound concentration 1000.0 nM
[23] = target: D(1A) dopamine receptor (Homo sapiens) (UniProt P21728); conditions: Compound concentration 10.0 uM
Sequence of D(1A) dopamine receptor (Homo sapiens) (P21728 whole entry): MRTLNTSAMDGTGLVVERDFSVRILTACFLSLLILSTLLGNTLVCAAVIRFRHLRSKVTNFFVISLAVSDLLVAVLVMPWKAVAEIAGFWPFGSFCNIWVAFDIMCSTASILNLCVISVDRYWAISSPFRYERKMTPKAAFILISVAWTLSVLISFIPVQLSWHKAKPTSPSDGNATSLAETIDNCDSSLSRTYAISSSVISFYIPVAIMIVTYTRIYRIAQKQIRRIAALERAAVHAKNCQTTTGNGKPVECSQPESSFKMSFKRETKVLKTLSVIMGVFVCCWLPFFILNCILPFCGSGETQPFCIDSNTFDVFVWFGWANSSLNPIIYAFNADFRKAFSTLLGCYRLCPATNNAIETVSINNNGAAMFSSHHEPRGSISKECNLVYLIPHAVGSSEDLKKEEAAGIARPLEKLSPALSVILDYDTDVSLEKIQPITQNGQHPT

[24] = target: Serine/threonine-protein kinase PAK 6 (Homo sapiens) (UniProt Q9NQU5); conditions: Compound concentration 1000.0 nM
Sequence of Serine/threonine-protein kinase PAK 6 (Homo sapiens) (Q9NQU5 whole entry, looked up): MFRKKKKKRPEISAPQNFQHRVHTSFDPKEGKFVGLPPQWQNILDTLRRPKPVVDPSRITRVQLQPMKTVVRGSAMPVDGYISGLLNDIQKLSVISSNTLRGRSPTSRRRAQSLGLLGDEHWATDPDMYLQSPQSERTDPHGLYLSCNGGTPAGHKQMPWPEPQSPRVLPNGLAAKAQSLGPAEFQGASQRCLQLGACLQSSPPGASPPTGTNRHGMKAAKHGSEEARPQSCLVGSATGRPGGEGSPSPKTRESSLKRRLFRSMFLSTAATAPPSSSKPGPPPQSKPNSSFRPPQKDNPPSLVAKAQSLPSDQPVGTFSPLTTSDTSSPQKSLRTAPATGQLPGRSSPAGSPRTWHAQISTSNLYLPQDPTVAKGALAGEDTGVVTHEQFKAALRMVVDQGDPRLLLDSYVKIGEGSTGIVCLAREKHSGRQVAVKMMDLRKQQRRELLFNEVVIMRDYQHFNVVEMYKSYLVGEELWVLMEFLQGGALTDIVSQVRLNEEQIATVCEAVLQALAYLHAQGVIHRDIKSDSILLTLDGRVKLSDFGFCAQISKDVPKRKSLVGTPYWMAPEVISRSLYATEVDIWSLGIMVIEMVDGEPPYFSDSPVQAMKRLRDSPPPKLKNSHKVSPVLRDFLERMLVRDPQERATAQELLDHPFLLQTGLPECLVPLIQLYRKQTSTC

[25] = target: Activin receptor type-2A (Homo sapiens) (UniProt P27037); conditions: Compound concentration 1000.0 nM
[26] = target: Serine/threonine-protein kinase ULK3 (Homo sapiens) (UniProt Q6PHR2); conditions: Compound concentration 1000.0 nM
[27] = target: Alpha-1D adrenergic receptor (Homo sapiens) (UniProt P25100); conditions: Compound concentration 10.0 uM
[28] = target: Cyclin-dependent kinase 4 (Homo sapiens) (UniProt P11802); conditions: Compound concentration 1000.0 nM
[29] = target: Epidermal growth factor receptor (Homo sapiens) (UniProt P00533); conditions: Compound concentration 1000.0 nM
[30] = target: Serine/threonine-protein kinase TAO1 (Homo sapiens) (UniProt Q7L7X3); conditions: Compound concentration 1000.0 nM
[31] = target: Cyclin-dependent kinase 18 (Homo sapiens) (UniProt Q07002); conditions: Compound concentration 1000.0 nM
Sequence of Cyclin-dependent kinase 18 (Homo sapiens) (Q07002 whole entry, canonical isoform): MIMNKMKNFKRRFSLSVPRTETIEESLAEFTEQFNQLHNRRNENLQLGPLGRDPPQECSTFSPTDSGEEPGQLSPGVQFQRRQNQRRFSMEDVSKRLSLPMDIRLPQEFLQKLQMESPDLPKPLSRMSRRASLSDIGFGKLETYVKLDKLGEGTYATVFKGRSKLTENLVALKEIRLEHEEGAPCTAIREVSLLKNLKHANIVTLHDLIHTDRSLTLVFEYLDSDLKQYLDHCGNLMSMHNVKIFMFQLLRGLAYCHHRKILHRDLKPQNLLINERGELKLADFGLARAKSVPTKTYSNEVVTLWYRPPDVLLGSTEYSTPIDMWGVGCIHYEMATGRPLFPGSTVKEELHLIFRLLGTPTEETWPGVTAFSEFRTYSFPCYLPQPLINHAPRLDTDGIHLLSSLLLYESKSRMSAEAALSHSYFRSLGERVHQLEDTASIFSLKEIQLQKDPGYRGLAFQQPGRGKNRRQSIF

[32] = target: Phosphatidylinositol 4,5-bisphosphate 3-kinase catalytic subunit gamma isoform (Homo sapiens) (UniProt P48736); conditions: Compound concentration 1000.0 nM
[33] = target: Protein kinase C iota type (Homo sapiens) (UniProt P41743); conditions: Compound concentration 1000.0 nM
Sequence of Protein kinase C iota type (Homo sapiens) (P41743 whole entry): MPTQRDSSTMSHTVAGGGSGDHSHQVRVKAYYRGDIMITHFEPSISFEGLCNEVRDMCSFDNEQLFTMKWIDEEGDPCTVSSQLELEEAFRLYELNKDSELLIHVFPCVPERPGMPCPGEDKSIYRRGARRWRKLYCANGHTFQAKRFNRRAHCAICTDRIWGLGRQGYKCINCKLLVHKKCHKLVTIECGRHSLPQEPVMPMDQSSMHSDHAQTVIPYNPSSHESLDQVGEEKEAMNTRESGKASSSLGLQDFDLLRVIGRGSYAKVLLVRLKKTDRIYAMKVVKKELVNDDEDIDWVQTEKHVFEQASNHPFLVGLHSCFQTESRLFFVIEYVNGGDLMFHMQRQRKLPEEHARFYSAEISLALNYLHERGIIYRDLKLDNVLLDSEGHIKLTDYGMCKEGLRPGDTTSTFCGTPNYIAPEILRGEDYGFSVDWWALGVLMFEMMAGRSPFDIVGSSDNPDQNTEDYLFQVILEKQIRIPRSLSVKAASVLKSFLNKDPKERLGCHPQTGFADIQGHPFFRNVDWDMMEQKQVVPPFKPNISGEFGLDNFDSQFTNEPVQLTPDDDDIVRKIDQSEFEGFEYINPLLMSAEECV

[34] = target: Aurora kinase A (Homo sapiens) (UniProt O14965); conditions: Compound concentration 1000.0 nM
[35] = target: Peripheral plasma membrane protein CASK (Homo sapiens) (UniProt O14936); conditions: Compound concentration 1000.0 nM
[36] = target: Histamine H1 receptor (Homo sapiens) (UniProt P35367); conditions: Compound concentration 10.0 uM
[37] = target: Serine/threonine-protein kinase PLK1 (Homo sapiens) (UniProt P53350); conditions: Compound concentration 1000.0 nM
[38] = test system: Mast/stem cell growth factor receptor Kit (Homo sapiens), P10721 [V559D,T670I]; conditions: Compound concentration 1000.0 nM
[39] = target: 5-hydroxytryptamine receptor 2C (Homo sapiens) (UniProt P28335); conditions: Compound concentration 10.0 uM
[40] = target: Tyrosine-protein kinase CSK (Homo sapiens) (UniProt P41240); conditions: Compound concentration 1000.0 nM
[41] = target: Serine/threonine-protein kinase SIK2 (Homo sapiens) (UniProt Q9H0K1); conditions: Compound concentration 1000.0 nM
[42] = test system: Tyrosine-protein kinase ABL1 (Homo sapiens), P00519 [F317L]; conditions: Compound concentration 1000.0 nM
[43] = test system: Epidermal growth factor receptor (Homo sapiens), P00533 [UNDEFINED MUTATION]; conditions: Compound concentration 1000.0 nM
Sequence of Epidermal growth factor receptor (Homo sapiens), P00533 [UNDEFINED MUTATION] (P00533 whole entry, looked up, change not shown): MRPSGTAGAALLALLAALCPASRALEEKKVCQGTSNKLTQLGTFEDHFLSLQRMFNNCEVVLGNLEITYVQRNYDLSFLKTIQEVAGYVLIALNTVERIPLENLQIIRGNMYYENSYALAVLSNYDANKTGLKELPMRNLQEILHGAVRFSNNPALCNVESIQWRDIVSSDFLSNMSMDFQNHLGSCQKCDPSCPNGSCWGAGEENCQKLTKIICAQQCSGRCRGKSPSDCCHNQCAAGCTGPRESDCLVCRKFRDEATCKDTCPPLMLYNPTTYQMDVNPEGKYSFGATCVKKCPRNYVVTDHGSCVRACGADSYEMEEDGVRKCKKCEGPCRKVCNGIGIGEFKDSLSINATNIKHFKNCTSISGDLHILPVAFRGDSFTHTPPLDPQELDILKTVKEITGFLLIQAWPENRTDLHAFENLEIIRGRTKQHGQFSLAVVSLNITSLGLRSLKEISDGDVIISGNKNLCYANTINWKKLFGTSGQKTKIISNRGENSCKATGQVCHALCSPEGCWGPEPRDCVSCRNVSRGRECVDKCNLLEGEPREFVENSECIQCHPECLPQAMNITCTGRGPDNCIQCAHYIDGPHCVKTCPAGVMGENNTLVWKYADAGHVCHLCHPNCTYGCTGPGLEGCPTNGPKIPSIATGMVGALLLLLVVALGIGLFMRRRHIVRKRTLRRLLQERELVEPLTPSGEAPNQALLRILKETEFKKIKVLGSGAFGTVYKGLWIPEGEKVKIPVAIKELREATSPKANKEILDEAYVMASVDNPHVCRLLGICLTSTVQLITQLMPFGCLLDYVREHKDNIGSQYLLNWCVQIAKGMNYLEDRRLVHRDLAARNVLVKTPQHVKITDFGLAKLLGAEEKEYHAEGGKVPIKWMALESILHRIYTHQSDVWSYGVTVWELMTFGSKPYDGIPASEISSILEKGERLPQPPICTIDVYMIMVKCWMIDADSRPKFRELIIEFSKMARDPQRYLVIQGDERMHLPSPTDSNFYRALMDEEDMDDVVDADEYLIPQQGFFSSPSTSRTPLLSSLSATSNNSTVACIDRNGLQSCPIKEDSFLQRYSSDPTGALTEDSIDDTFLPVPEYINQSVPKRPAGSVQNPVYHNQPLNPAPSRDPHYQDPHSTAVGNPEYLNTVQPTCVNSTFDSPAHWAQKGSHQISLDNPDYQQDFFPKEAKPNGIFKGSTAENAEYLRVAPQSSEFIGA

[44] = target: Serine/threonine-protein kinase Nek4 (Homo sapiens) (UniProt P51957); conditions: Compound concentration 1000.0 nM
Sequence of Serine/threonine-protein kinase Nek4 (Homo sapiens) (P51957 whole entry, looked up): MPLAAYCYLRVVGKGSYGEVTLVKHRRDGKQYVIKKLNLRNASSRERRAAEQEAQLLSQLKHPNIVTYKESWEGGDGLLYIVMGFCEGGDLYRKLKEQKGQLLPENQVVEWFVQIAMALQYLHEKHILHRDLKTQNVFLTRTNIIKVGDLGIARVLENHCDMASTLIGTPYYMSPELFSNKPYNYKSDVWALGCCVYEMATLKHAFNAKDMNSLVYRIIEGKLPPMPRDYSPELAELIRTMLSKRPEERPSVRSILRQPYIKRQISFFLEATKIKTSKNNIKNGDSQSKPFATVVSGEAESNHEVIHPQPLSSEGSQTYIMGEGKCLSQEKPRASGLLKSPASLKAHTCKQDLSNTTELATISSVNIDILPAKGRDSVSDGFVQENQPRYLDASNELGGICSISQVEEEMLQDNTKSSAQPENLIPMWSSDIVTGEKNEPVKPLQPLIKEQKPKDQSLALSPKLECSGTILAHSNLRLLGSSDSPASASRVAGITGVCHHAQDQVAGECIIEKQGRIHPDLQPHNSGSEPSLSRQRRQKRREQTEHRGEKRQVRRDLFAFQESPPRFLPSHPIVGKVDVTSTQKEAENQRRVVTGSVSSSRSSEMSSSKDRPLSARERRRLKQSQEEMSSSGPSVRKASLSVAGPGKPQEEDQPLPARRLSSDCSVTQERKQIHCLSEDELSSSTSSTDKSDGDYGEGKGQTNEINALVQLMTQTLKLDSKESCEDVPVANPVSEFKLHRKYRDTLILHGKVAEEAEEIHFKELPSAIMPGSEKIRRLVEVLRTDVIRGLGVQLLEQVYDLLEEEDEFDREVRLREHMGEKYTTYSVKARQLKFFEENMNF

[45] = test system: Epidermal growth factor receptor (Homo sapiens), P00533 [UNDEFINED MUTATION]; conditions: Compound concentration 1000.0 nM; remark: listed apart in the source

CC(=O)Nc1c(C(C)=O)c(=O)n(C)c2nc(-c3ccc(Cl)cc3Cl)c(-c3ccc(Cl)cc3)cc12 [NAPHTHYRIDINONE]
inactive: residual activity [1] 100% | inhibition [2] -7.96% | residual activity [3] 100% | residual activity [4] 100% | residual activity [5] 100% | residual activity [6] 100% | residual activity [7] 100% | residual activity [8] 100% | inhibition [9] -4.54% | residual activity [10] 100% | inhibition [11] 16.6% | residual activity [12] 100% | residual activity [13] 100% | residual activity [14] 100% | residual activity [15] 100% | residual activity [16] 100% | residual activity [17] 100% | residual activity [18] 100% | residual activity [19] 100% | residual activity [20] 82% | residual activity [21] 100% | residual activity [22] 100% | inhibition [23] 2.02% | residual activity [24] 100% | residual activity [25] 100% | residual activity [26] 75% | inhibition [27] -3.09% | residual activity [28] 100% | residual activity [29] 100% | residual activity [30] 89% | residual activity [31] 100% | residual activity [32] 78% | residual activity [33] 100% | residual activity [34] 100% | residual activity [35] 83% | inhibition [36] -1.39% | residual activity [37] 100% | residual activity [38] 100% | inhibition [39] 17.5% | residual activity [40] 100% | residual activity [41] 100% | residual activity [42] 100% | residual activity [43] 100% | residual activity [44] 100% | residual activity [45] 100%

CC(=O)c1c(NS(C)(=O)=O)c2cc(-c3ccc(Cl)cc3)c(-c3ccc(Cl)cc3Cl)nc2n(C)c1=O [MRL-CB1-NC]
inactive: residual activity [1] 77% | inhibition [2] -4.45% | residual activity [3] 100% | residual activity [4] 85% | residual activity [5] 96% | residual activity [6] 99% | residual activity [7] 100% | residual activity [8] 100% | inhibition [9] -4.92% | residual activity [10] 89% | residual activity [12] 100% | residual activity [13] 100% | residual activity [14] 79% | residual activity [15] 100% | residual activity [16] 100% | residual activity [17] 95% | residual activity [18] 97% | residual activity [19] 100% | residual activity [20] 87% | residual activity [21] 88% | residual activity [22] 92% | inhibition [23] 14.2% | residual activity [24] 100% | residual activity [25] 100% | residual activity [26] 80% | inhibition [27] 15.9% | residual activity [28] 100% | residual activity [29] 100% | residual activity [30] 92% | residual activity [31] 100% | residual activity [32] 82% | residual activity [33] 100% | residual activity [34] 87% | residual activity [35] 92% | inhibition [36] 18.8% | residual activity [37] 87% | residual activity [38] 100% | residual activity [40] 100% | residual activity [41] 100% | residual activity [42] 89% | residual activity [43] 100% | residual activity [44] 100% | residual activity [45] 100%
active: inhibition [11] 67.2% | inhibition [39] 81.8%
